# Measured values: patent publication US6740642B2, “Macrolides with antibacterial activity” (BAsilea Parmaceutica AG, priority 2000, dated 2004)
# Tests used:
# Experiment in all cases: MIC, standard microdilution
# St. pneumoniae SL199T = type: cell-based, Streptococcus pneumoniae; conditions: for MIC: Streptococcus pneumoniae, read-out: minimum inhibitory concentration (MIC)
# Text: (§1) The antibacterial activities of the compounds have been determined by standard microdilution technique (National Committee for Clinical Laboratory Standards. 1997. Methods for dilution antimicrobial susceptibility tests for bacteria that grow aerobically, 4th edition. Approved standard M7-A4. National Committee for Clinical Laboratory Standards, Wayne, Pa.).
# St. pneumoniae 1/1 = type: cell-based, Streptococcus pneumoniae; conditions: for MIC: Streptococcus pneumoniae, read-out: minimum inhibitory concentration (MIC)
# Text: as §1
# St. pneumoniae 1/4 = type: cell-based, Streptococcus pneumoniae; conditions: for MIC: Streptococcus pneumoniae, read-out: minimum inhibitory concentration (MIC)
# Text: as §1
# St. pneumoniae 12288 = type: cell-based, Streptococcus pneumoniae; conditions: for MIC: Streptococcus pneumoniae, read-out: minimum inhibitory concentration (MIC)
# Text: as §1
# [1] = tested on: P. aeruginosa ATCC27853 (+Ery. 32 μg/ml); type: cell-based
# Text: as §1
# E. coli ATCC25922 = type: cell-based; conditions: for MIC: Escherichia coli, read-out: minimum inhibitory concentration (MIC)
# Text: as §1
# S. aureus 745 = type: cell-based, Staphylococcus aureus; conditions: for MIC: Staphylococcus aureus, read-out: minimum inhibitory concentration (MIC)
# Text: as §1
# S. aureus ATCC29213 = type: cell-based, Staphylococcus aureus; conditions: for MIC: Staphylococcus aureus, read-out: minimum inhibitory concentration (MIC)
# Text: as §1
# S. aureus 1086 = type: cell-based, Staphylococcus aureus; conditions: for MIC: Staphylococcus aureus, read-out: minimum inhibitory concentration (MIC)
# Text: as §1
Compound,MIC (St. pneumoniae SL199T),MIC (St. pneumoniae 1/1),MIC (St. pneumoniae 1/4),MIC (St. pneumoniae 12288),minimum inhibitory concentration (MIC) [1],MIC (E. coli ATCC25922),MIC (S. aureus 745),MIC (S. aureus ATCC29213),MIC (S. aureus 1086),minimum inhibitory concentration (MIC) (St. pneumoniae SL199T),minimum inhibitory concentration (MIC) (St. pneumoniae 1/1),minimum inhibitory concentration (MIC) (St. pneumoniae 1/4),minimum inhibitory concentration (MIC) (St. pneumoniae 12288),minimum inhibitory concentration (MIC) (E. coli ATCC25922),minimum inhibitory concentration (MIC) (S. aureus 745),minimum inhibitory concentration (MIC) (S. aureus ATCC29213),minimum inhibitory concentration (MIC) (S. aureus 1086)
"CC[C@H]1OC(=O)[C@H](C)C(=O)[C@H](C)[C@@H](O[C@@H]2O[C@H](C)C[C@H](N(C)C)[C@H]2O)[C@](C)(OC)C[C@@H](C)C(=O)[C@H](C)[C@H]2[C@H](SCCn3ccc(-c4ccncc4)n3)C(=O)O[C@@]21C [Compound I-19, (3S,3aR,4R,6R,8R,9R,10R,12R,15R,15aS)-15-Ethyloctahydro-8-methoxy-4,6,8,10,12,15a-hexamethyl-3-[[2-[3-(4-pyridinyl)-1H-pyrazol-1-yl]ethyl]thio]-9-[[3,4,6-trideoxy-3-(dimethylamino)-β-D-xylo-hexopyranosyl]oxy]-2H-furo[2,3-c]oxacyclotetradecin-2,5,11,13(3H,6H,12H)-tetrone]",1 µg/mL,≤ 0.12 µg/mL,≤ 0.12 µg/mL,4 µg/mL,>16 µg/mL,> 16 µg/mL,> 16 µg/mL,≤ 0.12 µg/mL,≤ 0.12 µg/mL,–,–,–,–,–,–,–,–
"CC[C@H]1OC(=O)[C@H](C)C(=O)[C@H](C)[C@@H](O[C@@H]2O[C@H](C)C[C@H](N(C)C)[C@H]2O)[C@](C)(OC)C[C@@H](C)C(=O)[C@H](C)[C@H]2[C@H](SCCn3cnc(-c4cccnc4)c3)C(=O)O[C@@]21C [Compound I-20, (3S,3aR,4R,6R,8R,9R,10R,12R,15R,15aS)-15-Ethyloctahydro-8-methoxy-4,6,8,10,12,15a-hexamethyl-3-[[2-[4-(3-pyridinyl)-1H-imidazol-1-yl]ethyl]thio]-9-[[3,4,6-trideoxy-3-(dimethylamino)-β-D-xylo-hexopyranosyl]oxy]-2H-furo[2,3-c]oxacyclotetradecin-2,5,11,13(3H,6H,12H)-tetrone]",2 µg/mL,≤ 0.12 µg/mL,≤ 0.12 µg/mL,2 µg/mL,>16 µg/mL,> 16 µg/mL,> 16 µg/mL,0.25 µg/mL,0.25 µg/mL,–,–,–,–,–,–,–,–
"CC[C@H]1OC(=O)[C@H](C)C(=O)[C@H](C)[C@@H](O[C@@H]2O[C@H](C)C[C@H](N(C)C)[C@H]2O)[C@](C)(OC)C[C@@H](C)C(=O)[C@H](C)[C@H]2[C@H](SCCn3cncn3)C(=O)O[C@@]21C [Compound I-21, (3S,3aR,4R,6R,8R,9R,10R,12R,15R,15aS)-15-Ethyloctahydro-8-methoxy-4,6,8,10,12,15a-hexamethyl-3-[[2-[1H-1,2,4-triazol-1-yl]ethyl]thio]-9-[[3,4,6-trideoxy-3-(dimethylamino)-β-D-xylo-hexopyranosyl]oxy]-2H-furo[2,3-c]oxacyclotetradecin-2,5,11,13(3H,6H,12H)-tetrone]",8 µg/mL,≤ 0.12 µg/mL,> 16 µg/mL,> 16 µg/mL,>16 µg/mL,> 16 µg/mL,> 16 µg/mL,0.25 µg/mL,0.25 µg/mL,–,–,–,–,–,–,–,–
CC[C@H]1OC(=O)[C@H](C)C(=O)[C@H](C)[C@@H](O[C@@H]2O[C@H](C)C[C@H](N(C)C)[C@H]2O)[C@](C)(OC)C[C@@H](C)C(=O)[C@H](C)[C@H]2[C@H](SCCn3ccnc3)C(=O)O[C@@]21C [Compound I-22],–,–,–,–,>16 µg/mL,–,–,–,–,8 µg/mL,<=0.12 μg/ml,1 µg/mL,>16 µg/mL,>16 µg/mL,>16 µg/mL,0.25 µg/mL,0.25 µg/mL
